Laboratory results as given in US6602515B2, “Photo stable organic sunscreen compounds with antioxidant properties and compositions obtained therefrom” (EM Industries, priority 2001, dated 2003).

Columns and labels:
[1] = DPPH test method (antioxidant property, % reducing activity); format: biochemical; conditions: 20 minutes, 517 nm
Protocol: A DPPH concentrate (2.5×) of 25 mg of 1,1-Diphenyl-2-Picyrl-Hydrazyl ACS# 1898-66-4 (Sigma #D-9132, lot 99H3601) dissolved in 250 mL ethanol (USP), is prepared fresh on the measurement date. A DPPH working solution is then prepared by diluting 100 mL of this concentrate to a final volume of 250 mL ([…]). A blank 13×100 mm borosilicate glass screw top tube of ethanol (USP) is used to zero the spectrometer (Milton Roy, Spectronic 20+) at 517 nm and a control tube of DPPH working solution is measured under identical conditions, and taken as 0% activity. Aliquots of the 0.25% & 0.5% (RT & 45° C.) test solution are added to tubes followed by the rapid addition of 4 mL DPPH working solution then rapidly capped and mixed. After 20 minutes, the absorbance of each sample is read at 517 nm.
The percent reducing activity (% RA) is calculated using the following equation:
% Reduction Activity=100 A(0)-A(20)/A(0)
Where A(0) is the absorbance value of the DPPH working solution at 517 nm zeroed against an ethanol blank and A(20) is the absorbance at 517 nm, 20 minutes after combining the antioxidant with the DPPH working solution.
The concentration of antioxidant (mg/ml) in the final assay mixture is calculated based on the dilution of respective aliquots of each compound in the final assay volume and % RA tabulated and plotted as percent activity at each concentration in the dilution series.

[2] = Photostability, 2 hours illumination in Xe arc solar simulator, UV-visible absorption spectrum; format: physicochemical; conditions: for photostability compared to Octocrylene: 2 hours of illumination in the solar simulator
Description: The solar simulator used for illumination of the samples in the experiments was constructed incorporating a 1 kw Xe arc lamp, optical bench and sample illumination chamber. The lamp output was filtered through a water filter with a course window to remove most of the infrared radiation and optical filters to remove wavelengths below 290 nm. The output of the illumination system was focused onto the face of a 1 cm quartz Cuvette that was thermally equilibrated with a constant temperature water bath at 25 ° C. A magnetic stir was mounted under the Cuvette so that the samples could be stirred while being illuminated. An electric shutter was controlled by a dark room timer to provide precise control of illumination times. The solar simulator was constructed to provide illumination that closely matches terrestrial sunlight. The solar simulator delivered roughly 250 J/cm^2 over a 2-hour period of illumination in a 290-490 nm range. This irradiance was determined using two nitrobenzaldehyde chemical actinometry. The irradiance is much higher than other solar simulator systems which typically illuminate a large area in order to illuminate many samples simultaneously rather than being focused down to a very small area. Each exploratory sunscreen compound was dissolved in 70% ethanol/30% isopropyl myristate and/or 70% ethanol/30% water and the UV visible absorption spectrum measured with a Shimadza UV 2101-double beam spectrophotometer using the solvent as reference. A similar solution of Octocrylene was prepared and the UV-visible absorption spectrum measured. Each solution was then illuminated for two hours in the solar simulator. After illumination, the absorption spectrum was again measured each solution.

physchem = format: physicochemical
Protocol: Individual solutions of selected sunscreen compounds (2/1, 2/4, 2/5, 2/7 and 2/8) with Avobenzone were as follows. Each sunscreen compound was dissolved in 70% ethanol/30% H2O solution containing roughly an equal molar amount of Avobenzone. A similar solution containing Di-2-ethylhexyl-2,6-napthalene dicarboxylic acid (DENDA) and Avobenzone was also prepared. Each solution was then illuminated in the solar simulator as configured above for the photostability tests and aliquots of each solution were removed at 30-minute time intervals. These aliquots were injected into an HPLC and the loss of Avobenzone was followed with illumination time. The high performance liquid chromatograph (HPLC) used for all experiments reported therein incorporated a Spectra-Physics model P-200 pump with an Applied Biosystems model 785A UV-Visible detector with a Rheodyne manual injector incorporating a […] sample loop and a 150×4.6 mm reversed-phase C18 column (Alltech). All analyses were carried out under isocratic elution conditions using CH3OH/H2O mixtures for the mobile phase at a flow rate of […] per minute. It was necessary to employ HPLC separation of Avobenzone from each of the sunscreen compounds to quantify Avobenzone due to the absorption spectra overlap with some of these compounds.

[3] = Absorbance and molar absorptivity of sunscreen compounds; format: physicochemical; conditions: for ελMax / λMax: 70% ethanol/30% H2O solution; for molar absorption compared to Avobenzone: 70% ethanol and 30% isopropyl myristate
Protocol: Each exploratory sunscreen compound was dissolved in 70% ethanol/30% isopropyl myristate and/or 70% ethanol/30% water and the UV visible absorption spectrum measured with a Shimadza UV 2101-double beam spectrophotometer using the solvent as reference. A similar solution of Octocrylene was prepared and the UV-visible absorption spectrum measured. Each solution was then illuminated for two hours in the solar simulator. After illumination, the absorption spectrum was again measured each solution. […]

[4] = 2.500 mg/ml in final assay mixture
[5] = after 2 hours of illumination in the solar simulator
[6] = 0.028 mg/ml in final assay mixture
[7] = 0.056 mg/ml in final assay mixture
[8] = 0.139 mg/ml in final assay mixture
[9] = 0.278 mg/ml in final assay mixture

SMILES | photostability (retention of absorptivity), in words [2, 5] | ελMax [3] [M⁻¹ cm⁻¹] | λMax [3] [nm] | stability compared to Avobenzone [2] | molar absorption compared to Avobenzone [3] | loss of absorbance [2, 5] [%] | absorption after illumination relative to the initial value ([2]; 2 hour period of illumination, not precise) | half-life (physchem) [h] | % Reducing Activity [1, 4] [%] | photostability compared to Octocrylene [2] | stabilization of Avobenzone, compared with DENDA (physchem) | % Reducing Activity [1, 6] [%] | % Reducing Activity [1, 7] [%] | % Reducing Activity [1, 8] [%] | % Reducing Activity [1, 9] [%]
CCOC(=O)C(C#N)=Cc1cc(OC)c(OC)c(OC)c1 [2/2, ethyl-alpha-cyano-3,4,5-trimethoxy cinnamate, reference compound] |  |  |  |  |  |  |  |  | 3 |  |  |  |  |  | 
CCOC(=O)C(C#N)=Cc1cc(OC)c(O)c(OC)c1 [2/3, ethyl-alpha-cyano-3,5-dimethoxy-4-hydroxy cinnamate] |  |  |  |  |  |  |  |  | 25.40 |  |  | 5.2 | 8.4 | 11.3 | 15.5
CCOC(=O)C(=Cc1cc(OC)c(O)c(OC)c1)C(=O)OCC [2/4, diethyl-3,5-dimethoxy-4-hydroxy benzylidene malonate] | retain most of their absorptivity | 12000 | 338 | appear to be more stable than Avobenzone | lower molar absorption than Avobenzone |  |  |  | 71.70 | comparable photo stabilities to Octocrylene | appear to stabilize Avobenzone as effectively as DENDA | 5.2 | 12.8 | 29.51 | 33.4
CCOC(=O)C(C)=Cc1cc(OC)c(O)c(OC)c1 [2/7, ethyl-alpha-methyl-3,5-dimethoxy-4-hydroxy cinnamate] |  |  | 314 |  |  | 72 |  |  |  |  |  | 46.1 | 61.2 | 77.3 | 85.0
CCCCC(CC)COC(=O)C(=Cc1cc(OC)c(O)c(OC)c1)C(=O)OCC(CC)CCCC (stereo not shown) [2/8, di(2-ethyl-hexyl)-3,5-dimethoxy-4-hydroxy benzylidene malonate] |  | 16000 | 340 |  |  |  | approximately 82% |  |  |  | appear to stabilize Avobenzone as effectively as DENDA | 8.5 | 13.0 | 23.2 | 33.7
COc1cc(C=C(C(=O)OCCC(C)C)C(=O)OCCC(C)C)cc(OC)c1O [2/10, di-iso-amyl-3,5-dimethoxy-4-hydroxy benzylidene malonate] |  |  |  |  |  |  |  |  |  |  |  | 10.2 | 14.6 | 22.3 | 30.1
CCCCC(CC)COC(=O)c1ccc2cc(C(=O)OCC(CC)CCCC)ccc2c1 (stereo not shown) [DENDA, Di-2-ethylhexyl-2,6-napthalene dicarboxylic acid, reference compound] |  |  |  |  |  |  |  |  |  |  | Initially the loss of Avobenzone was quite rapid but then seemed to become stable |  |  |  | 

Second part, led by results:

photostability (retention of absorptivity), in words [2, 5] | ελMax [3] [M⁻¹ cm⁻¹] | λMax [3] [nm] | stability compared to Avobenzone [2] | molar absorption compared to Avobenzone [3] | loss of absorbance [2, 5] [%] | absorption after illumination relative to the initial value ([2]; 2 hour period of illumination, not precise) | half-life (physchem) [h] | SMILES | % Reducing Activity [1, 4] [%] | photostability compared to Octocrylene [2] | stabilization of Avobenzone, compared with DENDA (physchem) | % Reducing Activity [1, 6] [%] | % Reducing Activity [1, 7] [%] | % Reducing Activity [1, 8] [%] | % Reducing Activity [1, 9] [%]
retain most of their absorptivity | 20000 | 313 |  |  |  |  |  | CCOC(=O)C(=Cc1cc(OC)c(OC)c(OC)c1)C(=O)OCC [2/1, diethyl-3,4,5-trimethoxy benzylidene malonate, reference compound] | 0.0 | comparable photo stabilities to Octocrylene | appear to stabilize Avobenzone as effectively as DENDA |  |  |  | 
retain most of their absorptivity | 19000 | 348 | appear to be more stable than Avobenzone | lower molar absorption than Avobenzone |  |  |  | CCOC(=O)C(=Cc1cc(OC)c(O)c(OC)c1)C(C)=O [2/5, ethyl-alpha-acetyl-3,5-dimethoxy-4-hydroxy cinnamate] |  | comparable photo stabilities to Octocrylene | somewhat less effective than DENDA | 20.7 | 31.0 | 47.3 | 59.9
 | 25000 | 360 |  |  |  |  | ~3 | COc1ccc(C(=O)CC(=O)c2ccc(C(C)(C)C)cc2)cc1 [Avobenzone, reference compound] |  |  |  |  |  |  | 
no loss in absorptivity |  |  |  |  |  |  |  | CCCCC(CC)COC(=O)C(C#N)=C(c1ccccc1)c1ccccc1 (stereo not shown) [Octocrylene, reference compound] |  |  |  |  |  |  | 
